The values that follow come from patent publication EP0371730A1, “Dopamine-B-Hydroxylase inhibitors” (SMITHKLINE BEECHAM CORPORATION, priority 1988, dated 1990).

For data set [1] the following is noted: see Teresawa et al.; cited from earlier work.
In data set [2] the test system is spontaneously hypertensive rats. As to the kind of experiment: mean arterial blood pressure in spontaneously hypertensive rats. The data set is classed as in vivo. As to conditions: 50 mg/kg intraperitoneally, compared to vehicle-treated controls. The procedure: Further, spontaneously hypertensive rats were treated with 1-(2-imidazolylmethyl)-1,3-dihydro-2H-imidazole-2-thione at a dose of 50 mg/kg intraperitoneally, and mean arterial blood pressure was monitored for 250 minutes using indwelling cannulae in the tail arteries. […] The maximal blood pressure reduction was approximately 40 mmHg.

The next data set addresses T1, DBH (Homo sapiens, UniProt P09172).
T1 sequence (P09172 1-617): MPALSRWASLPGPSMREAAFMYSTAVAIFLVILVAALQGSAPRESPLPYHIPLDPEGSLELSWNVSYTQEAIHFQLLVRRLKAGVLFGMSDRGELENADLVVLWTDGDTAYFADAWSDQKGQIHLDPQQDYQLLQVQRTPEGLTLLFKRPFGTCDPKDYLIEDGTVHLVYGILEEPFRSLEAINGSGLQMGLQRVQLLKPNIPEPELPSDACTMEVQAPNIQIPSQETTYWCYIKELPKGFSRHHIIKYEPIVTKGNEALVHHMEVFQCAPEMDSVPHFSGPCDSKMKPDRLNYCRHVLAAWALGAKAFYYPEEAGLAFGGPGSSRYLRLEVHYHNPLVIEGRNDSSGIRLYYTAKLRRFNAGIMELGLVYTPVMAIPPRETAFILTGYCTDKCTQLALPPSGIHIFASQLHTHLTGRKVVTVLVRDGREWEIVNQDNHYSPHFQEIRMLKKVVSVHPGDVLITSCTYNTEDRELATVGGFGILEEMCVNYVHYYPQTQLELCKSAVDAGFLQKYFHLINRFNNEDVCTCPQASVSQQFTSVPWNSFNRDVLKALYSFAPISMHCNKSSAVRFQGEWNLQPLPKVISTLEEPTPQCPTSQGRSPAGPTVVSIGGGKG
To be noted: as reported by Runti et al.; cited from earlier work.

Regarding `CCCCc1ccc(C(=O)O)nc1` [Fusaric acid], the hepatotoxicity entry in data set [1] is on record as “hepatotoxic”. On to `S=c1[nH]ccn1Cc1ncc[nH]1` [1-(2-Imidazolylmethyl)-1,3-dihydro-2H-imidazole-2-thione], for which the “time to significant blood pressure reductions following treatment” value in data set [2] was not above 30 min. The “maximal blood pressure reduction” value in data set [2] (mean arterial blood pressure monitored for 250 minutes) is listed as “approximately 40 mmHg”. Take phenylpicolinic acid: the “inhibitory activity relative to fusaric acid” value on DBH was “twice the inhibitory activity of fusaric acid”.
